# Calls of active or inactive are those of the source. The rule behind the calls is not given here.
# Tests used:
# [1] = target: T1, Protein deacetylase HDAC6 (Homo sapiens, UniProt Q9UBN7); test: Inhibition of HDAC6 (unknown origin) using Boc-Lys(Ac)-AMC as substrate incubated for 60 mins by fluorescence plate reader assay
# T1 sequence (Q9UBN7 whole entry): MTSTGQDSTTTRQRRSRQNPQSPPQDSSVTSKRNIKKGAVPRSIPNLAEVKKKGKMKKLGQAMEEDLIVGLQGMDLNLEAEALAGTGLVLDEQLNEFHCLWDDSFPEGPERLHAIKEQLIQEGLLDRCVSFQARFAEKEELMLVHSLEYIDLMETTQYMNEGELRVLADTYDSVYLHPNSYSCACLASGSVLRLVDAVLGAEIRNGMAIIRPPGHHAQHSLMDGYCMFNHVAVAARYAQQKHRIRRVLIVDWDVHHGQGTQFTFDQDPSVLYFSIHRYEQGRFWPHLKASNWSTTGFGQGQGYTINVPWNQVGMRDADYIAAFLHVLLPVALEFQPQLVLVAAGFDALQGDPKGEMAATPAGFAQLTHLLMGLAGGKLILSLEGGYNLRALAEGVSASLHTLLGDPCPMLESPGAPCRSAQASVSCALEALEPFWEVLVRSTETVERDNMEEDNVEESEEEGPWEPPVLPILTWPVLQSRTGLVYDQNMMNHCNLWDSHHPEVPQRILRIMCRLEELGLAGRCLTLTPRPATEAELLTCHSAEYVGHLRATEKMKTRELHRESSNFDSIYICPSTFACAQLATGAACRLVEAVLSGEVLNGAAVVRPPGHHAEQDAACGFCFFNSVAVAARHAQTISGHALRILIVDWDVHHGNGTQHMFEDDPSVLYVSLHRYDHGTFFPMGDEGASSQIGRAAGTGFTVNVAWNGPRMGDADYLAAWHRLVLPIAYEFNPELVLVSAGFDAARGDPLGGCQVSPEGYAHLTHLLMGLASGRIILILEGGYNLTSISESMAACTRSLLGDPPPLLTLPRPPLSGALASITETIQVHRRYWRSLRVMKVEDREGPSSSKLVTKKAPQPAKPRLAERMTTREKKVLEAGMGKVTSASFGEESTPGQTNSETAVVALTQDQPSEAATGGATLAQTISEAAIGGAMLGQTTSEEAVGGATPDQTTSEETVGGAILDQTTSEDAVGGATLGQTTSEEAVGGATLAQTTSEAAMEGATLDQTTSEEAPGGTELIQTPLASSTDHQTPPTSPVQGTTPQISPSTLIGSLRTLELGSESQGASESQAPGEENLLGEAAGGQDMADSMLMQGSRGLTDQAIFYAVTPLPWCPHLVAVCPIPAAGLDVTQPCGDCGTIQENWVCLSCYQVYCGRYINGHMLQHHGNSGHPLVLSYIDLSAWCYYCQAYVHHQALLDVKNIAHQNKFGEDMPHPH
# Histone deacetylase 1 = Histone deacetylase 1 (Homo sapiens, UniProt Q13547); test: Inhibition of HDAC1 (unknown origin) using Boc-Lys(Ac)-AMC as substrate incubated for 60 mins by fluorescence plate reader assay
# Histone deacetylase 1, sequence (Q13547 whole entry): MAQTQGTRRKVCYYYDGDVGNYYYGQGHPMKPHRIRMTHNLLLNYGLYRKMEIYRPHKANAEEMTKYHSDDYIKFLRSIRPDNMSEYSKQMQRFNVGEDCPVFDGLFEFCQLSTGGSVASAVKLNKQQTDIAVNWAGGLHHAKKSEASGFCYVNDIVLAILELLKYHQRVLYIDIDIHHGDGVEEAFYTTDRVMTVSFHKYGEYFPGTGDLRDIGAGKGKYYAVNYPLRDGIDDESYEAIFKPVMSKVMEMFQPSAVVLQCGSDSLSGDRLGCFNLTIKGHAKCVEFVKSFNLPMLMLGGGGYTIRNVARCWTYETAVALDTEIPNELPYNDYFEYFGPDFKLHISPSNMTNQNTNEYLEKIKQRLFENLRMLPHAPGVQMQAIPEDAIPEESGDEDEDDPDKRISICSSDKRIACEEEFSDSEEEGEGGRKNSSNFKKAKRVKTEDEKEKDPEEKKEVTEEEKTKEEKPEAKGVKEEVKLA
# HCT-116 [2] = test: Antitumor activity against human HCT-116 cells xenografted in BALB/c mouse assessed as inhibition of tumor growth at 20 mg/kg, ip adminstered once daily measured every three days for 15 days by vernier caliper method relative to control; type: functional; design: scale not given: the % may be the effect or the level left; settings: time 15 day
# HCT-116 [3] = test: Inhibition of colony formation in human HCT-116 cells assessed as reduction in number of colonies at 3 nM drug medium changed every three days for 2 weeks by crystal violet staining based analysis; type: functional, cell-based
# HCT-116 [4] = test: Induction of cell cycle arrest in human HCT-116 cells assessed as accumulation of cells at G2/M phase at 0.1 to 1 uM incubated for 24 hrs by flow cytometry analysis; type: functional, cell-based; settings: dose 0.1-1 µM, DDE = dose-dependent effect
# [5] = target: T2, Histone deacetylase (Homo sapiens) (UniProt Q13547+O15379+Q9UBN7+Q92769+Q9UQL6+Q8WUI4+Q9BY41+Q96DB2+P56524+Q9UKV0+Q969S8); test: Inhibition of HDAC in human HCT-116 cells assessed as upregulation of acetylated alpha-tubulin level 0.1 to 1 uM incubated for 48 hrs by Western blot analysis; type: cell-based; settings: dose 0.1-1 µM, DDE = dose-dependent effect
# HCT-116 [6] = test: Antitumor activity against human HCT-116 cells xenografted in BALB/c mouse assessed as inhibition of tumor growth at 40 mg/kg, ip adminstered once daily measured every three days for 15 days by vernier caliper method relative to control; type: functional; design: scale not given: the % may be the effect or the level left; settings: time 15 day
# SGC-7901 = test: Antiproliferative activity against human SGC-7901 cells assessed as reduction in cell viability incubated for 72 hrs by WST-8 assay; type: functional, cell-based; settings: SGC-7901, 72 h
# HCT-116 [7] = test: Induction of apoptosis in human HCT-116 cells assessed as early apoptotic cells at 1 uM incubated for 48 hrs by Annexin V-FITC/propidium iodide staining-based flow cytometric analysis (reference value: 1.73 %); type: functional
# HCT-116 [8] = test: Induction of apoptosis in human HCT-116 cells assessed as increase in cleaved PARP level at 0.1 to 1 uM incubated for 48 hrs by Western blot analysis; type: functional, cell-based; settings: dose 0.1-1 µM
# HCT-116 [9] = test: Induction of apoptosis in human HCT-116 cells at 0.1 to 1 uM incubated for 48 hrs by Annexin V-FITC/propidium iodide staining-based flow cytometric analysis; type: functional, cell-based; settings: dose 0.1-1 µM, DDE = dose-dependent effect
# HCT-116 [10] = test: Induction of apoptosis in human HCT-116 cells assessed as late apoptotic cells at 1 uM incubated for 48 hrs by Annexin V-FITC/propidium iodide staining-based flow cytometric analysis (reference value: 5.80 %); type: functional
# HL-60 = test: Antiproliferative activity against human HL-60 cells assessed as reduction in cell viability incubated for 72 hrs by WST-8 assay; type: functional, cell-based; settings: HL-60, 72 h
# [11] = Toxicity in BALB/c mouse assessed as drug tolerability at 20 to 40 mg/kg, ip adminstered once daily for 15 days; type: organism-based; settings: in vivo, 360 h, dose 20-40 mg/kg, time 15 day
# [12] = Toxicity in BALB/c mouse assessed as body weight loss at 20 to 40 mg/kg, ip adminstered once daily for 15 days; type: organism-based; settings: in vivo, 360 h, dose 20-40 mg/kg, time 15 day
# MDA-MB-231 = test: Antiproliferative activity against human MDA-MB-231 cells assessed as reduction in cell viability incubated for 72 hrs by WST-8 assay; type: functional, cell-based; settings: MDA-MB-231, 72 h
# Mus musculus [13] = test: In vivo inhibition of HDAC in HCT-116 cells xenografted in BALB/c mouse assessed as upregulation of alpha tubulin expression at 20 to 40 mg/kg, ip for 15 days by Western blot analysis; type: functional, organism-based; settings: dose 20-40 mg/kg, time 15.0 day, DDE = dose-dependent effect
# HCT-116 [14] = test: Inhibition of colony formation in human HCT-116 cells assessed as blockage of anchor growth at 10 nM drug medium changed every three days for 2 weeks by crystal violet staining based analysis; type: functional; settings: HCT-116, 336 h
# Mus musculus [15] = test: In vivo inhibition of HDAC in BALB/c mouse xenografted with HCT-116 cells assessed as upregulation of acetylated H3 expression at 20 to 40 mg/kg, ip for 15 days by Western blot analysis; type: functional, organism-based; settings: dose 20-40 mg/kg, time 15.0 day, DDE = dose-dependent effect
# HCT-116 [16] = test: Inhibition of colony formation in human HCT-116 cells at 3 to 10 nM drug medium changed every three days for 2 weeks by crystal violet staining based analysis; type: functional, cell-based; settings: dose 3-10 nM, DDE = dose-dependent effect
# HCT-116 [17] = test: Induction of apoptosis in human HCT-116 cells assessed as late apoptotic cells at 0.1 uM incubated for 48 hrs by Annexin V-FITC/propidium iodide staining-based flow cytometric analysis (reference value: 5.80 %); type: functional
# HCT-116 [18] = test: Inhibition of colony formation in human HCT-116 cells assessed as reduction in size of colonies at 3 nM drug medium changed every three days for 2 weeks by crystal violet staining based analysis; type: functional, cell-based
# HCT-116 [19] = test: Antiproliferative activity against human HCT-116 cells assessed as reduction in cell viability incubated for 72 hrs by WST-8 assay; type: functional, cell-based; settings: HCT-116, 72 h
# [20] = target: T2, Histone deacetylase (Homo sapiens); test: Inhibition of HDAC in human HCT-116 cells assessed as upregulation of acetylated H3 level at 0.1 to 1 uM incubated for 48 hrs by Western blot analysis; type: cell-based; settings: dose 0.1-1 µM, DDE = dose-dependent effect
# A549 = test: Antiproliferative activity against human A549 cells assessed as reduction in cell viability incubated for 72 hrs by WST-8 assay; type: functional, cell-based; settings: A549, 72 h
# HCT-116 [21] = test: Induction of apoptosis in human HCT-116 cells assessed as early apoptotic cells at 0.1 uM incubated for 48 hrs by Annexin V-FITC/propidium iodide staining-based flow cytometric analysis (reference value: 1.73 %); type: functional
SMILES,IC50 [1],IC50 (Histone deacetylase 1),IC50 (SGC-7901),IC50 (HL-60),IC50 (MDA-MB-231),IC50 (HCT-116 [19]),IC50 (A549),also measured
O=C(CCCCCCn1c(C(=O)NC2C3CC4CC(C3)CC2C4)cc2cc(Cl)ccc21)NO (stereo unspecified),6.84 nM,2.16 nM,,,,,,
COc1ccc2c(c1)cc(C(=O)NC1C3CC4CC(C3)CC1C4)n2CCCCCCC(=O)NO (stereo unspecified),2.3 nM,1.16 nM,0.04 µM,0.02 µM,0.46 µM,0.14 µM,0.96 µM,Activity (HCT-116 [2]): 44.54%; inhibition (HCT-116 [3]): Active; Activity (HCT-116 [4]): Dde; Activity [5]: Dde; Activity (HCT-116 [6]): 71.79%; Activity (HCT-116 [7]): 3.34%; Activity (HCT-116 [8]): Active; Activity (HCT-116 [9]): Dde; Activity (HCT-116 [10]): 48.8%; Activity [11]: Non-Toxic; Activity [12]: Non-Toxic; Activity (Mus musculus [13]): Dde; inhibition at 0.01 µM (HCT-116 [14]): 100%; Activity (Mus musculus [15]): Dde; inhibition (HCT-116 [16]): Dde; Activity (HCT-116 [17]): 29.9%; inhibition (HCT-116 [18]): Active; Activity [20]: Dde; Activity (HCT-116 [21]): 2.59%
O=C(CCCCCCn1cc(C(=O)NC23CC4CC(CC(C4)C2)C3)c2ccccc21)NO,1.92 nM,1.16 nM,14.7 µM,1.05 µM,20.8 µM,45 µM,> 100 µM,
CC(=O)SCCCCCCCn1cc(C(=O)NC2C3CC4CC(C3)CC2C4)c2ccccc21 (stereo unspecified),> 1000 nM,> 1000 nM,,,,,,
CC(=O)SCCCCCCn1cc(C(=O)NC2C3CC4CC(C3)CC2C4)c2ccccc21 (stereo unspecified),> 1000 nM,> 1000 nM,,,,,,
O=C(CCCCCCn1cc(C(=O)NC2CCCCC2)c2ccccc21)NO,2.32 nM,1.56 nM,25.4 µM,8.5 µM,> 100 µM,15 µM,> 100 µM,
O=C(CCCCCCn1cc(C(=O)NC2CCCCCC2)c2ccccc21)NO,2.11 nM,2 nM,,,,,,
O=C(CCCCCCn1cc(C(=O)NC2C3CC4CC(C3)CC2C4)c2ccccc21)NO (stereo unspecified),1.7 nM,2.04 nM,,,,,,
O=C(CCCCCCn1nc(C(=O)NC2C3CC4CC(C3)CC2C4)c2ccccc21)NO (stereo unspecified),2.72 nM,2.96 nM,,,,,,
O=C(CCCCCCn1cc(C(=O)Nc2ccc(Cl)cc2Cl)c2ccccc21)NO,3.73 nM,2.53 nM,2.59 µM,10.5 µM,16.2 µM,4.5 µM,47 µM,
O=C(CCCCCCn1cc(C(=O)NCc2ccc(Cl)cc2)c2ccccc21)NO,1.56 nM,2.31 nM,> 100 µM,72.9 µM,> 100 µM,> 100 µM,> 100 µM,
